Results published in ChEMBL document CHEMBL1828508, “Biphenyl-3-yl alkylcarbamates as fatty acid amide hydrolase (FAAH) inhibitors: steric effects of N-alkyl chain on rat plasma and liver stability” (Eur J Med Chem, 2011).

How the values were obtained:
Liver [1] = assay: (§1) Metabolic stability of the compound in Wistar rat liver S9 fraction assessed as half life at 1 uM by RP-HPLC analysis; type: ADME, subcellular; details: s9, 1 µM
Plasma [2] = assay: (§2) Metabolic stability of the compound in Wistar rat plasma assessed as half life at 1 uM by RP-HPLC analysis; type: ADME, cell-free; details: 1 µM
[3] = Chemical stability of the compound in 0.01 M borate buffer assessed as half life at pH 9.0 by HPLC analysis; type: physicochemical; details: for t1/2: buffer; for half-life: 0.01 M borate buffer
[4] = Chemical stability of the compound in 0.01 M PBS assessed as compound remaining at pH 7.4 by HPLC analysis; details: buffer
Plasma [5] = assay: Hydrolytic rate constant, log k of the compound in Wistar rat plasma; type: ADME, cell-free
Liver [6] = assay: Hydrolytic rate constant, log k of the compound in Wistar rat liver S9 fraction; type: ADME, subcellular
[7] = Chemical stability of the compound in 0.01 M borate buffer assessed as half life at 300 nM and pH 9.0 by HPLC analysis; type: physicochemical
[8] = Chemical stability of the compound in 0.01 M borate buffer assessed as half life at 100 nM and pH 9.0 by HPLC analysis; type: physicochemical
[9] = Chemical stability of the compound in 0.01 M borate buffer assessed as half life at 1 uM and pH 9.0 by HPLC analysis; type: physicochemical
[10] = Metabolic stability of the compound in Wistar rat liver S9 fraction at 1 uM measured after 90 mins by RP-HPLC analysis; type: ADME, subcellular; details: read-out: Stability
[11] = as §1; type: ADME, subcellular; details: Wistar, liver S9 fraction
[12] = as §2; type: ADME, cell-free; details: Wistar
Rattus norvegicus = assay: In vivo displacement of [3H]-anandamide from rat brain FAAH after 30 mins by scintillation counting; type: functional; details: read-out: ID50 (the source's name)
[13] = molecular target: T1, Fatty-acid amide hydrolase 1 (Rattus norvegicus, UniProt P97612); assay: Displacement of [3H]-anandamide from rat brain FAAH after 30 mins by scintillation counting
T1 sequence (P97612 whole entry): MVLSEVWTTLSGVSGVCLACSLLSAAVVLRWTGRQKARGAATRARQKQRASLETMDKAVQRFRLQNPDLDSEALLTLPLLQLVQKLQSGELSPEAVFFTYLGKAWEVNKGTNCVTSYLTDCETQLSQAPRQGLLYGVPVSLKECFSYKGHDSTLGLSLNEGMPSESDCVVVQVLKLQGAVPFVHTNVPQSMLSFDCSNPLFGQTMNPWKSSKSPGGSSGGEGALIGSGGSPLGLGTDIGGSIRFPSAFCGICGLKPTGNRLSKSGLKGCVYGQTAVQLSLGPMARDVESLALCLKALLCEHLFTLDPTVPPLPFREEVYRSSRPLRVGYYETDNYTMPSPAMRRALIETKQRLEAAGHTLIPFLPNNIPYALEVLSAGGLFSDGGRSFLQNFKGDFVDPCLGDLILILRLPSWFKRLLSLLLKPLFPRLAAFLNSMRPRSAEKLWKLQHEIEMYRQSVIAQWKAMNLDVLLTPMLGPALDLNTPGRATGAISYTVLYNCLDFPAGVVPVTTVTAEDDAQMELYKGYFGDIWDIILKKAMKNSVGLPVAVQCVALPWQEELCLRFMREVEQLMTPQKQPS

[14] = molecular target: T2, Fatty-acid amide hydrolase 1 (Rattus norvegicus) (UniProt P97612); assay: Selectivity index, ratio URB524 pIC50 to compound pIC50 for displacement of [3H]-anandamide from rat brain FAAH after 30 mins by scintillation counting
T2 sequence (whole entry): T1 sequence (P97612 whole entry)

Compound	t1/2 (Liver [1]) [min]	t1/2 (Plasma [2]) [min]	t1/2 [3] [min]	Stability [4] [%]	Activity (Plasma [5])	Activity (Liver [6])	half-life at 0.3 µM [7] [min]	half-life at 0.1 µM [8] [min]	half-life at 1 µM [9] [min]	remaining at 1.5 h, 1 µM [10] [%]	half-life at 1 µM [11] [min]	half-life at 1 µM [12] [min]	ED50 (Rattus norvegicus) [mg/kg]	half-life [3] [min]	pIC50 [13]	Ratio pIC50 [14]
NC(=O)c1cccc(-c2cccc(OC(=O)NCc3ccc4ccccc4c3)c2)c1	39	5.6	13.9	22.8												
O=C(NCc1cccc2ccccc12)Oc1cccc(-c2ccccc2)c1	46.8	7.3	38.7	24.8	-1.03	-1.83										
O=C(NCc1ccc2ccccc2c1)Oc1cccc(-c2ccccc2)c1	27.5	1	23.9	18.4	-0.17	-1.6										
O=C(NC12CC3CC(CC(C3)C1)C2)Oc1cccc(-c2ccccc2)c1		183.3		66.7	-2.42		262	264	266	99.2						
O=C(NCC1CCCCC1)Oc1cccc(-c2ccccc2)c1	9.8	15.3	104.8	65.4	-1.35	-1.15										
O=C(NC1CCCCC1)Oc1cccc(-c2ccccc2)c1				41.1	-1.79	-0.94	42.7	42.3	40.4		6	42.7	0.81	40.7		
CNC(=O)Oc1cccc(-c2ccccc2)c1	7.4	3.8	43.8	33.9	-0.74	-1.03										
O=C(NC1CCC1)Oc1cccc(-c2ccccc2)c1	2.5	19.9	27.5	22.6	-1.46	-0.56										
NC(=O)c1cccc(-c2cccc(OC(=O)NCCCCc3ccccc3)c2)c1	46.9	4.2	30.3	18.8											9.48	
O=C(NCCCCCCN1CCOCC1)Oc1cccc(-c2ccccc2)c1	13	8	33.4	30.9	-1.06	-1.27										
O=C(NCCCCCCc1ccccc1)Oc1cccc(-c2ccccc2)c1	39.4	8.4	73.8	61.1	-1.08	-1.75										
O=C(NCCc1ccccc1)Oc1cccc(-c2ccccc2)c1	2.7	22.1	40	34.9	-1.5	-0.59										
O=C(NC1Cc2ccccc2C1)Oc1cccc(-c2ccccc2)c1	63.1	16.5	22.4	16.2	-1.38	-1.96										
O=C(NC1CCCC1)Oc1cccc(-c2ccccc2)c1	2.5	40	45.1	34.4	-1.76	-0.56										
CC(C)NC(=O)Oc1cccc(-c2ccccc2)c1	1.9	20	61.8	34.6	-1.46	-0.45										
CCCCCCNC(=O)Oc1cccc(-c2ccccc2)c1	8	7.5	68.3	46.7	-1.03	-1.06										
CCCCNC(=O)Oc1cccc(-c2ccccc2)c1	1.8	21.6	42.9	46.7	-1.49	-0.41										
O=C(NCc1ccccc1)Oc1cccc(-c2ccccc2)c1	10.8	14.3	26.5	22.7	-1.32	-1.19										
NC(=O)c1cccc(-c2cccc(OC(=O)NC3CCCCC3)c2)c1 [URB-597]				40.2							58.7	33		33		
O=C(NCCCCc1ccccc1)Oc1cccc(-c2ccccc2)c1	19.3	6.6		35.9	-0.98	-1.44	42	41.7	43.1				0.96			10
